Our source for the GI50 and TGI values is PubChem BioAssay (NCI).

Values joined by “and” are separate entries in the source; they are usually repeats but may differ in a detail not shown here. Identical values can stand only once.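 Each compound was tested at five concentrations against cells in 96-well plates for 48 hours. GI50 is the concentration that inhibits growth by half. TGI is the concentration that stops growth completely.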

Test systems include DU-145 prostate; EKVX NSCLC; HL-60(TB) leukemia; A498 renal; U251 CNS; UACC-62 melanoma; MDA-MB-231 breast; NCI-H23 lung; A549 NSCLC; OVCAR-8 ovarian.
Experiment in all cases: NCI anticancer screen, dose series, 48 h

Regarding `COc1cc(C2CC(c3ccc(C)cc3)=NN2C=O)ccc1Oc1ccnc2cc(Cl)ccc12` (stereo not drawn), the GI50 in the assay with DU-145 prostate is over 50 µM; in the assay with EKVX NSCLC, 7.75 µM; in the assay with HL-60(TB) leukemia, over 50 µM; in the assay on A498 renal it was 5.73 µM; with U251 CNS it was 6.5 µM; with UACC-62 melanoma it was 11.2 µM. Further, the results for the GI50 with MDA-MB-231 breast, with NCI-H23 lung and in the assay with A549 NSCLC were 4.23 µM, 6.93 µM and over 50 µM, respectively. Also, the TGI in the assay on DU-145 prostate was over 50 µM; with EKVX NSCLC it was over 50 µM; with HL-60(TB) leukemia, over 50 µM; in the assay on A498 renal it was 23.1 µM; in the assay on U251 CNS, 21.4 µM; in the assay with UACC-62 melanoma it was over 50 µM. Further, the TGI in the assay on MDA-MB-231 breast is 43.8 µM; in the assay with NCI-H23 lung it was over 50 µM; with A549 NSCLC, over 50 µM.
Consider `C=C1C(=O)O[C@H]2[C@H]1CC/C(Cn1cc(CNC(=O)Cc3cn(C(=O)c4ccc(Cl)cc4)c4ccc(OC)cc34)nn1)=C\CC[C@@]1(C)O[C@@H]21`, for which the GI50 in the assay on DU-145 prostate is 1.75 µM; in the assay on EKVX NSCLC it was 2.29 µM; with A498 renal, 2.51 µM; in the assay with U251 CNS, 1.89 µM; with UACC-62 melanoma it was 1.63 µM; in the assay on MDA-MB-231 breast it was 1.58 µM. The values for the GI50 in the assay on OVCAR-8 ovarian, with NCI-H23 lung and in the assay on A549 NSCLC were 2.62 µM, 2.58 µM and 12.7 µM, respectively. Also, the TGI in the assay with DU-145 prostate amounted to 3.35 µM; in the assay with EKVX NSCLC, 7.33 µM; in the assay on A498 renal, 8.24 µM; with U251 CNS it was 3.55 µM; with UACC-62 melanoma it was 3.18 µM; in the assay with MDA-MB-231 breast, 3.12 µM. Moreover, the TGI in the assay with OVCAR-8 ovarian stood at 8.3 µM; in the assay with NCI-H23 lung, 6.7 µM; with A549 NSCLC it was 29.6 µM.
Turning to `COc1ccc(Cl)cc1Nc1nc(C(F)(F)F)ccc1C(=O)N/N=C/c1c(Cl)cccc1Cl`, the GI50 in the assay with DU-145 prostate is 5.91 µM; with HL-60(TB) leukemia, 4.87 µM; with A498 renal it was 12.3 µM; with U251 CNS, 4.97 µM; with UACC-62 melanoma, 7.16 µM; with MDA-MB-231 breast, 14.5 µM. Also, the GI50 with NCI-H23 lung is 38.5 µM; with A549 NSCLC, over 100 µM. In addition, the TGI is over 100 µM in the assay with DU-145 prostate; 41.6 µM in the assay on HL-60(TB) leukemia; over 100 µM with A498 renal; over 100 µM in the assay with U251 CNS; over 100 µM in the assay with UACC-62 melanoma; over 100 µM in the assay on MDA-MB-231 breast. Besides, the TGI with NCI-H23 lung and with A549 NSCLC was over 100 µM throughout.
Regarding `CC(=O)n1c(COS(C)(=O)=O)nc2ccccc21`, the TGI in the assay on DU-145 prostate, in the assay with EKVX NSCLC, with A498 renal, with U251 CNS, in the assay with UACC-62 melanoma and in the assay with MDA-MB-231 breast was over 100 µM throughout. The TGI in the assay on OVCAR-8 ovarian, with NCI-H23 lung and with A549 NSCLC was over 100 µM throughout.
In the case of `CN1CC[C@@H](c2c(O)cc(O)c3c(=O)cc(-c4ccccc4Cl)oc23)[C@@H](O)C1`, the GI50 is 0.0774 µM and 0.0902 µM in the assay with DU-145 prostate; 0.141 µM in the assay on EKVX NSCLC; 0.0148 µM with HL-60(TB) leukemia; 0.0604 µM in the assay on A498 renal; 0.0571 µM and 0.0424 µM in the assay with UACC-62 melanoma; 0.168 µM in the assay on MDA-MB-231 breast. Moreover, the GI50 was 0.0908 µM and 0.103 µM and 0.0453 µM in the assay on NCI-H23 lung; 0.0793 µM and 0.161 µM in the assay with A549 NSCLC. In addition, the TGI in the assay on EKVX NSCLC was 0.435 µM and 0.947 µM; in the assay with HL-60(TB) leukemia, 0.0693 µM and 0.338 µM; in the assay on A498 renal, 0.181 µM and 1.13 µM; in the assay on U251 CNS, 31 µM; in the assay with UACC-62 melanoma, 0.133 µM and 0.182 µM and 0.102 µM; with MDA-MB-231 breast it was 0.613 µM and 2.86 µM. Further, the TGI in the assay on NCI-H23 lung is 0.23 µM and 0.301 µM and 0.189 µM; with A549 NSCLC it was 33.8 µM.
With `COc1cc([C@H]2c3cc4c(cc3O[C@@]3(O)COC(=O)[C@@H]23)OCO4)cc(OC)c1OC`, the TGI in the assay with DU-145 prostate, in the assay on EKVX NSCLC, with HL-60(TB) leukemia, in the assay with A498 renal, in the assay with U251 CNS and in the assay with UACC-62 melanoma was over 100 µM each time. Further, the TGI in the assay with MDA-MB-231 breast, in the assay with OVCAR-8 ovarian and in the assay with A549 NSCLC was over 100 µM in each case.
As for `CC(=O)Nc1ccc2c(c1)c(C1=C(c3cn(C)c4ccccc34)C(=O)NC1=O)cn2C`, the GI50 was 4.02 µM with DU-145 prostate; 0.913 µM in the assay on HL-60(TB) leukemia; 0.538 µM in the assay on A498 renal; 1.16 µM in the assay on U251 CNS; 1.15 µM in the assay on UACC-62 melanoma; 5 µM in the assay with MDA-MB-231 breast. For the same compound, the GI50 in the assay with OVCAR-8 ovarian was 2.68 µM; with NCI-H23 lung it was 5.45 µM; in the assay with A549 NSCLC, 1.65 µM. The TGI with DU-145 prostate is over 25 µM; in the assay with HL-60(TB) leukemia, 4.9 µM; in the assay on A498 renal it was 1.79 µM; in the assay on U251 CNS, over 25 µM; in the assay on UACC-62 melanoma, over 25 µM; in the assay with MDA-MB-231 breast, over 25 µM. Also, the TGI in the assay with OVCAR-8 ovarian, in the assay with NCI-H23 lung and in the assay on A549 NSCLC was over 25 µM each time.
For `O=c1oc2cc(OS(=O)(=O)c3ccc(F)cc3)ccc2c2c1CCCCC2`, the GI50 in the assay on DU-145 prostate, in the assay on HL-60(TB) leukemia, in the assay with A498 renal, in the assay with U251 CNS, in the assay on MDA-MB-231 breast and in the assay on OVCAR-8 ovarian was over 100 µM throughout. Moreover, the GI50 with NCI-H23 lung and in the assay with A549 NSCLC was over 100 µM in each case. Also, the TGI in the assay with DU-145 prostate, in the assay with HL-60(TB) leukemia, in the assay with A498 renal, in the assay on U251 CNS, with MDA-MB-231 breast and in the assay on OVCAR-8 ovarian was over 100 µM throughout. For the same compound, the TGI with NCI-H23 lung and in the assay with A549 NSCLC was over 100 µM each time.
`CN1CCN(CN2C(=O)C3C4C=CC(C3C2=O)C2C3C(=O)N(CN5CCN(C)CC5)C(=O)C3C42)CC1` (stereo not drawn): the TGI with DU-145 prostate is 77.2 µM; in the assay with EKVX NSCLC, over 100 µM; in the assay on A498 renal it was > 100 µM and 97.9 µM; with U251 CNS, 38.3 µM and 37.2 µM and 33 µM; in the assay on UACC-62 melanoma it was 43.3 µM and 37.1 µM and 58.7 µM; in the assay on MDA-MB-231 breast, 56.8 µM. For the same compound, the TGI in the assay on OVCAR-8 ovarian was 35.7 µM and > 65.3 µM and 59.9 µM; in the assay with NCI-H23 lung it was 43.9 µM and 39.6 µM and 75.2 µM; in the assay on A549 NSCLC, 90.5 µM and 57.5 µM and 36.2 µM. The GI50 in the assay on EKVX NSCLC was over 100 µM.
Consider `Cc1cc(-c2ncc(CC(=O)Nc3ccc(-c4cnccn4)cn3)cc2C)ccn1`, for which the GI50 in the assay with DU-145 prostate is 72.9 µM; in the assay on HL-60(TB) leukemia, 39.3 µM; in the assay on A498 renal, 2.8 µM; with U251 CNS it was 24.6 µM; with UACC-62 melanoma it was 22.1 µM; in the assay on MDA-MB-231 breast it was 55.7 µM. In addition, the values for the GI50 with OVCAR-8 ovarian, in the assay on NCI-H23 lung and in the assay on A549 NSCLC were 25.6 µM, 23.6 µM and 36.7 µM, respectively. The TGI was over 100 µM in the assay on DU-145 prostate; over 100 µM in the assay with HL-60(TB) leukemia; 65.5 µM with A498 renal; over 100 µM in the assay with U251 CNS; over 100 µM with UACC-62 melanoma; over 100 µM in the assay on MDA-MB-231 breast. Further, the TGI in the assay with OVCAR-8 ovarian, in the assay with NCI-H23 lung and with A549 NSCLC was over 100 µM in each case.
